# Assay results as given in US5192799A, “Coumaran group containing amine compounds and their acid addition salts and quaternary ammonium salts and the use thereof as anti arrhythmic agents and as psychotropic agents” (Mitsui Petrochemical Industries, Ltd., priority 1987, dated 1993).
# Key:
# [1] = tested on: Purkinje fiber; experiment: Effect on APD (APD75, field-stimulated right ventricular free wall); type: cell-based, adult mongrel dog; conditions: 20 minutes incubation, 37° C., 1 Hz, control before drug = 100%; for activation at 1 µg/mL / activation at 3 µg/mL / activation at 10 µg/mL: Canis lupus familiaris, purkinje, 20 min, read-out: APD75 % (percent change in APD75)
# Protocol: The pharmacological effects of the compounds of this invention represented by general formula (1) were studied. By using the heart of an adult mongrel dog, the activity of the compounds of general formula (1) were tested in vitro and in vivo. The heart of an anaethetized dog was extracted and suspended in a chamber at 37° C. in Tyrode's solution. The drug was added to Tyrode's solution being perfused through the heart specimen, and electrophysiological effects of the drug on cardiac action potential duration (APD) and maximum rate of depolarization were studied. An anaethetized dog was cut open at the chest.
# An adult mongrel dog was anaethetized with intravenous administration of pentobarbital, 30 mg/kg. The heart was quickly removed, and the right ventricular free wall was dissected in the Tyrode's solution. The right ventricular free wall was fixed within an incubator at 37° C., and field stimulation at 1 Hz was carried out. Intracellular potentials were measured by piercing glass microelectrodes (10-20 megaohms) into the Purkinje fiber and the wave form of cardiac action potential drawn on an oscilloBraun tube via an amplifier was analyzed by a computer. Value of APD was obtained at 75% of full repolarization (APD75). The drug was added to Tyrode's solution (20 ml) perfused through the specimen. The effect of the drug was expressed by a percent change in APD75 after incubation for 20 minutes with the control value of APD before application of the drug being taken as 100%.
# [2] = tested on: right ventricle (effective refractory period); experiment: Activity on ERP of the right ventricle; type: in vivo, adult mongrel dog; conditions: Canis lupus familiaris, iv, ERP before drug = 100%, read-out: ERP % (ERP prolonging activity); for change in vivo at 0.1 mg/kg: 0.1 mg/kg i.v.; for change in vivo at 0.3 mg/kg: 0.3 mg/kg i.v.; for change in vivo at 1 mg/kg: 1 mg/kg i.v.; for change in vivo at 3 mg/kg: 3 mg/kg i.v.
# Protocol: The pharmacological effects of the compounds of this invention represented by general formula (1) were studied. By using the heart of an adult mongrel dog, the activity of the compounds of general formula (1) were tested in vitro and in vivo. The heart of an anaethetized dog was extracted and suspended in a chamber at 37° C. in Tyrode's solution. The drug was added to Tyrode's solution being perfused through the heart specimen, and electrophysiological effects of the drug on cardiac action potential duration (APD) and maximum rate of depolarization were studied. An anaethetized dog was cut open at the chest. […] In an anaethetized and open-chested adult mongrel dug, a silver-silver chloride electrode was sutured to the right ventricle, and ventricular pacing was performed at a stimulation interval of 400 msec for a duration time of 4 msec, twice diastolic threshold. Then, a small amount of alcohol was injected through the sinus artery to extinguish the pacemaker activity, and under ventricular pacing, ERP was measured. Ten stimulations were taken as one train, and the interval between trains when the response to the first stimulation disappeared was defined as ERP. […] ERP before drug administration (intravenously or intraduodenally) was taken as 100%, and ERP prolonging activity of the drugs was expressed by %.
# [3] = in vivo; conditions: mouse, in vivo, po, LD50 p.o., p.o., 24 hours after administration, male ddY mice
# Protocol: By using male ddY-strain 5-week old mice (3 to 4 per group), the compounds of general formula (1) were each administered orally or intraperitoneally as a solution in saline or as a suspension in methyl cellulose, and 24 hours after the administration, the toxicity of the compounds was evaluated.
Compound,activation at 1 µg/mL ([1]; dose 1 μg/ml),activation at 3 µg/mL ([1]; dose 3 μg/ml),activation at 10 µg/mL ([1]; dose 10 μg/ml),other results
O=C1COc2cc(OCCCN[C@@H]3C[C@H]4CC[C@@H]3C4)ccc21 (relative stereo) [Compound 168],0%,3%,,
C[C@H]1C[C@H](C)CN(CCCOc2ccc3c(c2)OCC3=O)C1 (relative stereo) [Compound 1129],,7%,,
"CCCCCCC[N+](CC)(CC)CCCCc1ccc(Cl)cc1 [Clofilium, reference compound]",,,15%,change in vivo at 0.1 mg/kg [2]: 7 ± 1.3%; change in vivo at 0.3 mg/kg [2]: 15.2 ± 2.4%; change in vivo at 1 mg/kg [2]: 22.4 ± 1.6%
CCCCCCCN(CC)CCCOc1ccc2c(c1)OCC2=O [Compound 100],21%,31%,,
CCCCCCCN(CC)CCCOc1ccc2c(c1)OCC2=O [Compound 104],,,,APD75 % (percent change in APD75) ([1]; dose 1 μg/ml): 21%; APD75 % (percent change in APD75) ([1]; dose 3 μg/ml): 30%
CCCCCN(CC)CCCOc1ccc2c(c1)OCC2=O [Compound 108],0%,2%,,
CCN(CCCOc1ccc2c(c1)OCC2=O)C12CC3CC(CC(C3)C1)C2 [Compound 172],0%,8%,,
CCCN(CCCOc1ccc2c(c1)OCC2=O)CCOC [Compound 180],5%,11%,15%,
CCCCN(CCCC)CCOc1ccc2c(c1)OCC2=O [Compound 204],3%,7%,8%,
"CCCCCCCN(CC)CC(O)COc1ccc2c(c1)OCC2=O (centres unmarked) [Compound 214, 6-[3-(N-ethyl-N-heptylamino)-2-hydroxypropyloxy]coumaran-3-one]",15%,15%,,
CSC(=NC#N)N(C)CCCOc1ccc2c(c1)OCC2=O [Compound 271],,,,LD50 at 24 h [3]: > 300 mg/kg
CC(C)NCC(O)COc1ccc2c(c1)OCC2=O (centres unmarked) [Compound 272],,8%,10%,
COCCN(CCCOc1ccc2c(c1)OCC2=O)CCOC [Compound 276],5%,12%,23%,change in vivo at 0.1 mg/kg [2]: 0%; change in vivo at 0.3 mg/kg [2]: 0%; change in vivo at 1 mg/kg [2]: 7%; change in vivo at 3 mg/kg [2]: 7%
CCCN(CCCOc1ccc2c(c1)OCC2=O)CCC(=O)OCC [Compound 281],,,,LD50 at 24 h [3]: > 300 mg/kg
CCCCCCC[N+](CC)(CC)CCCOc1ccc2c(c1OC)OCC2=O [Compound 289],7%,8%,,
CCCCCCC[N+](CC)(CC)CCCOc1cc(OC)c2c(c1)OCC2=O [Compound 290],,11%,35%,
CCCCCCC[N+](CC)(CC)CC(O)COc1ccc2c(c1)OCC2=O (centres unmarked) [Compound 292],15%,25%,28%,change in vivo at 0.1 mg/kg [2]: 8%; change in vivo at 0.3 mg/kg [2]: 8%; change in vivo at 1 mg/kg [2]: 8%
CCCC[N+](CCCC)(CCCC)CCCOc1ccc2c(c1)OCC2=O [Compound 293],0%,4%,,
C=CC[N+](CC)(CCCOc1ccc2c(c1)OCC2=O)C1CCCCC1 (centres unmarked) [Compound 294],,11%,35%,
CCCCCCC[N+](CC)(CC)CCCOc1cccc2c1OCC2=O [Compound 295],,,,LD50 at 24 h [3]: > 300 mg/kg

Compound,activation at 1 µg/mL ([1]; dose 1 μg/ml),activation at 3 µg/mL ([1]; dose 3 μg/ml),activation at 10 µg/mL ([1]; dose 10 μg/ml),other results
CCCCCCCN(CC)CCCOc1ccc2c(c1)OC(C)(CC)C2C (centres unmarked) [Compound 404],,4%,,
CCCCCCC[N+](CC)(CC)CCCOc1ccc2c(c1)OCC2 [Compound 422],0%,3%,,
CCCCCCC[N+](CC)(CC)CCCOc1ccc2c(C)c(C)c(=O)oc2c1 [Compound 634],4%,7%,11%,
CCCCCCC[N+](CC)(CC)CCCOc1ccc2ccc(=O)oc2c1 [Compound 638],0%,7%,,
CCCCCCC[N+](CC)(CC)CCCOc1ccc2c(c1)CCC2 [Compound 770],0%,7%,,
CCCCCCC[N+](CC)(CC)CCCOc1ccc2c(c1)OC(C)(CC)CC2=O (centres unmarked) [Compound 820],4%,5%,,
CCCCCCCN(CC)CCCOc1ccc2sc(=O)oc2c1 [Compound 952],0%,3%,7%,
C=CCc1ccccc1OCC(O)C[N+](C)(C)C(C)C (centres unmarked) [Compound 1020],10%,14%,19%,
CCCCCCC[N+](CC)(CC)CCCOc1ccccc1C=CC(C)=O [Compound 1022],0%,11%,18%,
O=C1COc2cc(OCCCN3CCCC3)ccc21 [Compound 1102],,6%,,
CC1CCN(CCCOc2ccc3c(c2)OCC3=O)C1 (centres unmarked) [Compound 1106],,8%,13%,
O=C1COc2cc(OCCCN3CCCCC3)ccc21 [Compound 1108],0%,7%,,APD75 % (percent change in APD75) ([1]; dose 10 μg/ml): 9%
CC[N+]1(CCCOc2ccc3c(c2)OCC3=O)CCCC(C)C1 (centres unmarked) [Compound 1119],,4%,,
CCCC1CCCCN1CCCOc1ccc2c(c1)OCC2=O (centres unmarked) [Compound 1134],7%,9%,,
O=C1COc2cc(OCCCN3CCOCC3)ccc21 [Compound 1166],4%,6%,,
O=C1COc2cc(OCCCN3CC4CCC(CC4)C3)ccc21 [Compound 1198],4%,6%,,
O=C1COc2cc(OCCCN3CCCC(CO)C3)ccc21 (centres unmarked) [Compound 1214],,4%,,
CS(=O)(=O)Nc1ccc(C2CCN(CCCOc3ccc4c(c3)OCC4=O)CC2)cc1 [Compound 1304],,,,LD50 at 24 h [3]: > 300 mg/kg
"CC(C)NCC(O)c1ccc(NS(C)(=O)=O)cc1 (centres unmarked) [Sotalol, reference compound]",,,,change in vivo at 0.1 mg/kg [2]: 1.7 ± 1.7%; change in vivo at 0.3 mg/kg [2]: 6.7 ± 0.9%; change in vivo at 1 mg/kg [2]: 8.7 ± 1.2%; change in vivo at 3 mg/kg [2]: 15.5 ± 0.5%
